Source: patent US20030194377A1, “Therapeutic uses of BPI protein products in cystic fibrosis patients” (priority 1996, published 2003)

Legend:
[1] = tested on: Pseudomonas aeruginosa strain isolated from a sputum sample from a CF patient; test: Dade MicroScan gram-negative panels supplemented with rBPI21; type: cell-based; settings: for susceptibility of the strain to combination of rBPI21 and antibiotic: supplemented with 16 μg/mL rBPI21 formulated with 0.2% poloxamer 188; for change of antibiotic MIC: in combination with rBPI21 formulated with 0.2% poloxamer 403, versus poloxamer 188 formulation; for change of susceptibility to antibiotic: in combination with rBPI21 formulated with 0.2% poloxamer 403
autoantibodies to BPI = settings: adult CF patients, Zhao et al. 1996; cited from earlier work
anti-BPI antibodies = test: enzyme immunoassay of BPI antibody titers in plasma samples from cystic fibrosis patients; type: binding, human; settings: 11 CF patient plasma samples, dilutions 1/100 to 1/12,800; protein coated as antigen
Experimental: Plasma samples from 11 cystic fibrosis (CF) patients were tested for the presence of anti-BPI antibodies as follows. BPI holoprotein (rBPI) or an N-terminal BPI protein product (rBPI21) were used as antigen sources in an enzyme immunoassay. The wells of Immulon 2 microtiter plates (Dynatech Laboratories Inc., Chantilly, Va.) were coated overnight at 2-8° C. with 50 uL of rBPI21 (0.5 μg/mL) or rBPI (1 μg/mL) diluted in phosphate buffered saline, pH 7.2 (PBS). Unbound BPI was removed and 200 μL of PBS containing 0.1% human serum albumin and 0.1% goat serum was added to all wells. After blocking the plates for 1 hour at room temperature, the wells were washed 3 times with 300 μL of wash buffer (PBS/0.5% Tween 20). Plasma samples were prepared as serial two-fold dilutions from 1/100 to 1/12,800. Plasma samples were diluted in triplicate with PBS containing 1% bovine serum albumin, 1% goat serum and 0.05% Tween 20 (PBS-BSA-GS/Tween). […] The absorbance at 405 nm (A405) was determined for all wells using a Vmax Plate Reader (Molecular Devices Corp., Menlo Park, Calif.).
The mean A405 for all samples were corrected for background by subtracting the mean A405 of wells receiving sample dilution buffer (no plasma) in the primary incubation step. […] An absorbance greater than 0.05 units was considered to be above background.

Row | Molecule | susceptibility of the strain to combination of rBPI21 and antibiotic [1] | change of susceptibility to antibiotic [1] | further results
1 | NC[C@H]1O[C@H](O[C@H]2[C@H](O)[C@@H](O[C@H]3O[C@H](CO)[C@@H](O)[C@H](N)[C@H]3O)[C@H](N)C[C@@H]2N)[C@H](N)C[C@@H]1O [tobramycin] | susceptible |  | 
2 | O=C(O)c1cn(C2CC2)c2cc(N3CCNCC3)c(F)cc2c1=O [ciprofloxacin] | susceptible |  | change of antibiotic MIC [1]: further decreased the MICs
3 | CC1(C)S[C@@H]2[C@H](NC(=O)[C@H](NC(=O)N3CCNC3=O)c3ccccc3)C(=O)N2[C@H]1C(=O)O [azlocillin] |  | increased susceptibity | 
4 | CCN[C@@H]1C[C@H](N)[C@@H](O[C@H]2OC(CN)=CC[C@H]2N)[C@H](O)[C@H]1O[C@H]1OC[C@](C)(O)[C@H](NC)[C@H]1O [netilmicin] |  | increased susceptibity | 
5 | C[C@H]1[C@H](NC(=O)/C(=N\OC(C)(C)C(=O)O)c2csc(N)n2)C(=O)N1S(=O)(=O)O [aztreonam] | susceptible |  | change of antibiotic MIC [1]: further decreased the MICs
6 | CC1(C)S[C@@H]2[C@H](NC(=O)C(C(=O)O)c3ccccc3)C(=O)N2[C@H]1C(=O)O (stereo partly shown) [carbenicilin] | susceptible |  | 
7 | O=C(N[C@H](CO)[C@H](O)c1ccc([N+](=O)[O-])cc1)C(Cl)Cl [chloramphenicol] |  | increased susceptibity | 
8 | sulfamethoxazole/trimethoprim | susceptible |  | 
9 | Augmentin |  | increased susceptibity | 
10 | BPI: bactericidal/permeability-increasing protein isolated from granules of polymorphonuclear leukocytes (protein, UniProt P17213 32-487, looked up) Bactericidal …: VNPGVVVRISQKGLDYASQQGTAALQKELKRIKIPDYSDSFKIKHLGKGHYSFYSMDIREFQLPSSQISMVPNVGLKFSISNANIKISGKWKAQKRFLKMSGNFDLSIEGMSISADLKLGSNPTSGKPTITCSSCSSHINSVHVHISKSKVGWLIQLFHKKIESALRNKMNSQVCEKVTNSVSSELQPYFQTLPVMTKIDSVAGINYGLVAPPATTAETLDVQMKGEFYSENHHNPPPFAPPVMEFPAAHDRMVYLGLSDYFFNTAGLVYQEAGVLKMTLRDDMIPKESKFRLTTKFFGTFLPEVAKKFPNMKIQIHVSASTPPHLSVQPTGLTFYPAVDVQAFAVLPNSSLASLFLIGMHTTGSMEVSAESNRLVGELKLDRLLLELKHSNIGPFPVELLQDIMNYIVPILVLPRVNEKLQKGFPLPTPARVQLYNVVLQPHQNFLLFGADVVYK |  |  | sera with autoantibodies to BPI (autoantibodies to BPI): 60/66
11 | rBPI: recombinant BPI holoprotein (protein, UniProt P17213 32-487, looked up) Bactericidal …: VNPGVVVRISQKGLDYASQQGTAALQKELKRIKIPDYSDSFKIKHLGKGHYSFYSMDIREFQLPSSQISMVPNVGLKFSISNANIKISGKWKAQKRFLKMSGNFDLSIEGMSISADLKLGSNPTSGKPTITCSSCSSHINSVHVHISKSKVGWLIQLFHKKIESALRNKMNSQVCEKVTNSVSSELQPYFQTLPVMTKIDSVAGINYGLVAPPATTAETLDVQMKGEFYSENHHNPPPFAPPVMEFPAAHDRMVYLGLSDYFFNTAGLVYQEAGVLKMTLRDDMIPKESKFRLTTKFFGTFLPEVAKKFPNMKIQIHVSASTPPHLSVQPTGLTFYPAVDVQAFAVLPNSSLASLFLIGMHTTGSMEVSAESNRLVGELKLDRLLLELKHSNIGPFPVELLQDIMNYIVPILVLPRVNEKLQKGFPLPTPARVQLYNVVLQPHQNFLLFGADVVYK |  |  | plasma samples with detectable immune response (A405>0.05) (anti-BPI antibodies): 7/11
